How the values were obtained:
[1] = target: T1, α2B Human Adrenergic Receptor (Homo sapiens, UniProt P18089); experiment: Equilibrium competition binding, [3H] rauwolscine, membranes of transfected Y-1 cells; details: cloned human receptor; [3H] rauwolscine; read-out: pKi Alpha-2 B (converted)
T1 construct: expressed in transfected cells; host or cells: Y-1 cells
T1 sequence (P18089 1-450): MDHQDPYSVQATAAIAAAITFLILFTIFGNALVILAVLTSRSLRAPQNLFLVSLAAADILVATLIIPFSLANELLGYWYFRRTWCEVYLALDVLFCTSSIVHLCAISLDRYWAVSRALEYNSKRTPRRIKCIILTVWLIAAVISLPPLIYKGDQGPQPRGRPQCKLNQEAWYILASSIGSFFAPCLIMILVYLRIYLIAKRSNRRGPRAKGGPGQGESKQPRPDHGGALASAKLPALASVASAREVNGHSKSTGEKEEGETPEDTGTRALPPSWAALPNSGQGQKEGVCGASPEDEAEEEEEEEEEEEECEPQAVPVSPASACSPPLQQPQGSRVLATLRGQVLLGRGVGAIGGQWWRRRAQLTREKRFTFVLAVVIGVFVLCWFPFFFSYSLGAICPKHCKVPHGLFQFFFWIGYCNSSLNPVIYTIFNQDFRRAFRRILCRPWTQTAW

[2] = target: T1, α2B Human Adrenergic Receptor; type: cell-based
Description: (§1) Binding and functional assays were performed using stably transfected human alpha adrenergic receptors. Equilibrium competition binding assays were performed with membrane preparations from cultured LM(tk-) cells stably transfected with the cloned human adrenoceptor subtypes except for α2b, which was expressed in Y-1 cells, using [^3H] prazosin for α1 receptors and [^3H] rauwolscine for α2 receptors.
Stable cell lines were selected as described above.
(§2) The agonist activity (expressed as pEC50) was measured as a function of the ability to inhibit the forskolin-stimulated synthesis of cyclic adenosine monophosphate (cAMP). The stably transfected cells were incubated in Ham's F10 with 5 mM theophylline, 10 mM HEPES, 10 μM pargyline, and/or appropriate concentrations of forskolin for 20 min at 37° C. in 5% CO2. The tested compounds were then added to a final concentration of 0.001 nM to 1 μM and incubated for an additional 15 min at 37° C. in 5% CO2. The medium was aspirated and the reaction was stopped by the addition of 100 mM HCl . […] The plates are stored at 4° C. for 15 min and assayed to determine the linear concentration of cAMP. The appropriate dilution is interpolated from the standard curve of cold cAMP. The assessment of cAMP formation is determined by radioimmunoassay (cAMP radioimmunoassay kit; Advanced Magnetics, Cambridge, Mass.). Radioactivity was quantified using a Packard COBRA Auto Gamma counter, equipped with data reduction software.

[3] = target: α2C Human Adrenergic Receptor (Homo sapiens, UniProt P18825); experiment: Equilibrium competition binding, [3H] rauwolscine, membranes of transfected LM(tk-) cells
[4] = target: T2, α2C Human Adrenergic Receptor (Homo sapiens, UniProt P18825); type: cell-based; set-up: The entire coding region of α2C (1383 bp), including 2 bp of 5′ UT and 400 bp of 3′ UT; expressed in transfected cells; host or cells: LM(tk-) cells; details: functional cAMP assay
T2 sequence (P18825 1-462): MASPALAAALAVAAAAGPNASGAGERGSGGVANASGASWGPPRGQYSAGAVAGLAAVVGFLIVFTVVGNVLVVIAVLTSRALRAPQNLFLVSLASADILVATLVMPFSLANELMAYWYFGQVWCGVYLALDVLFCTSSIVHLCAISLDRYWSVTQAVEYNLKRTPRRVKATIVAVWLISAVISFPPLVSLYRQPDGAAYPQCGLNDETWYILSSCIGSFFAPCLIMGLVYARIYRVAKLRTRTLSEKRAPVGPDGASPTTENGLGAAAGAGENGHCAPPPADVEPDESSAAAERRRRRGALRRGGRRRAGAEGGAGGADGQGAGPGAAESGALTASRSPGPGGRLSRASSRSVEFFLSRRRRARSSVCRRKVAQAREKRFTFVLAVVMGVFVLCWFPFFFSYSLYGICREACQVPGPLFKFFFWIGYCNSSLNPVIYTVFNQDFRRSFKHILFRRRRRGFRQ
Description: as §1
The insert housing this coding region was an @ 1.8 kb Ncol/EcoRI human spleen genomic fragment which was end-blunted by either T4 polymerase or Klenow fragment of DNA polymerase. Stable cell lines were selected as described above.
as §2

[5] = system: rats; details: systematic administration, reversed by atipamazole or idazoxan; cited from earlier work

Row | Structure (SMILES) | Ki [1] | I.A Alpha-2 B ([2]; functional cAMP assay) | EC50 ([2]; inhibition of forskolin-stimulated cAMP, NA: Not Active, read-out: pEC50 Alpha-2 B (converted)) | Ki [3] | I.A Alpha-2 C [4] | antinociception [5]
1 | Ic1cc(NC2=NCCN2)cc2[nH]cnc12 [Example 54, 7-Iodo-5-(2-imidazolin-2-ylamino)Benzimidazole] | 27.5 nM | 0.60 | 138 nM | 200 nM | 0.90 | –
2 | Cc1cccc(C(C)c2cnc[nH]2)c1C (stereo not drawn) [Medetomidine] | – | – | – | – | – | dose-dependent antinociception
